The target in data set [1] is T1, H3 histamine receptor (Homo sapiens, UniProt Q9Y5N1).
T1 construct: host or cells: recombinant frozen ready-to-use cells
The experiment in a line: Lance cAMP intrinsic activity assay (antagonist dose-response). Format: cell-based. As to the method: (§1) Intrinsic activity studies were performed by two methods, Aequoscreen and Lance cAMP assays according to the manufacturer of the ready to use cells with stable expression of the H3 histamine receptor (Perkin Elmer, Waltham, MA, USA).
The LANCE Ultra cAMP assay as a homogeneous time-resolved fluorescence resonance energy transfer (TR-FRET) immunoassay is designed to measure cAMP produced upon modulation of adenylyl cyclase activity by GPCRs. The assay is based on the competition between the europium (Eu) chelate-labeled cAMP tracer and sample cAMP for binding sites on cAMP-specific monoclonal antibodies labeled with the ULight dye.
For measurement cells (frozen, ready to use) were thawed and resuspended in 4 mL of HBSS 1X. Then cells suspension was placed in a 15 mL Falcon tube and centrifuged for 10 min at 275× g. Pellet was resuspended in 1.5 mL HBSS 1X to determine cells concentration, and after next centrifugation cells were resuspended in stimulation buffer at appropriate concentration. […] Cell stimulation was performed for 30 min at RT°, and the agonist and antagonists were added simultaneously.

For data set [2], the target named is T1, H3 histamine receptor. Nature of the data set: Aequoscreen intrinsic activity assay (antagonist dose-response). Format: cell-based. As to the method: as §1
The Aequoscreen technology uses the recombinant cell lines with stable co-expression of apoaequorin and a GPCR as a system to detect activation of the receptor, following addition of an agonist, via the measurement of light emission. For measurement cells (frozen, ready to use) were thawed and resuspended in 10 mL of an assay buffer containing 5 μM of coelenterazine h. Then cells suspension was placed in a 10 mL Falcon tube, fixed onto a rotating wheel and incubated overnight at RT° in the dark. Cells were diluted with assay buffer to 5000 cells/20 µL. Agonistic ligands 2× (50 μL/well), diluted in assay buffer, were prepared in 1/2 area white polystyrene plates, and the 50 μL of cell suspension was dispensed on the ligands using the injector. The light emission was recorded for 20 s. Cells were incubated with antagonist for 15 min at RT°. Then 50 µL of agonist (3 × EC80 final concentration) was injected onto the mixture of cells and antagonist and the light emission was recorded for 20 s.

In data set [3] the test system is non-obese rats fed palatable diet. The experiment in a line: Model of excessive eating: body weight, calorie intake, fat pads. The format is in vivo, female Wistar rats. The conditions noted are these: for body weight gain: i.p. daily 28 days, vs palatable diet + vehicle; for caloric intake over the 28 days: i.p., KSK compounds 10 mg/kg b.w. or bupropion/naltrexone. As to the method: Female Wistar rats were housed in pairs. […] The water was available ad libitum. Palatable control group (palatable diet + vehicle) received vehicle (1% Tween 80, i.p.), while palatable test groups (palatable diet + compound) were injected i.p. tested compounds at the dose of 10 or 1 mg/kg b.w./day suspended in 1% Tween 80 or the reference compound bupropion/naltrexon. The combination of bupropion at a dose of 20 mg/kg b.w./day and naltrexone at a dose of 1 mg/kg b.w./day was also suspended in 1% Tween 80 and administered i.p. Weight was evaluated daily. Calorie intake was evaluated ones per week. On the 31st day, 20 min after i.p. administration of heparin (5000 units/rat) and thiopental (70 mg/kg b.w.), animals were sacrificed and peritoneal fat pads were collected (Figure 11).
Palatable diet contained: 100 g peanuts—612 kcal; 100 mL condensed milk—131 kcal; 100 g milk chocolate—529 kcal; 100 g cheese—325 kcal. Standard diet contained 100 g feed—280 kcal.

Data set [4] shares this test system. Nature of the data set: Plasma lipids, hormones, corticosterone, CRP and IL-6 at end of chronic experiment. The format is in vivo, female Wistar rats. The following applies: for plasma triglyceride levels: day 31, palatable feed + treatment, compared to rats fed standard feed. How it is done: On the 31st day of the experiment, 20 min after i.p. administration of heparin (5000 units/rat) and thiopental (70 mg/kg b.w.), blood was collected from the left carotid artery and then centrifuged at 600× g (15 min, 4 °C) in order to obtain the plasma. To determine total cholesterol, HDL-cholesterol, LDL-cholesterol or triglyceride levels in plasma, standard enzymatic and spectrophotometric tests (Biomaxima S.A. Lublin, Poland) were used. The ELISA Kit (Cayman Chemical, USA) assay was used to determine corticosterone levels in plasma. To determine IL-6, ghrelin, adiponectin, leptin and C-reactive protein levels in plasma, standard ELISA Kit (Bioassay Technology Laboratory, Shanghai, China) was used.

The subject of a further data set is female Wistar rats. The experiment in a line: Visceral illness via kaolin intake (pica behavior). The format is in vivo. The conditions noted are these: for kaolin clay intake: single i.p. 10 mg/kg b.w.; for kaolin clay intake / water intake (pica model): vs control group that received i.p. CuSO4; for kaolin intake: KSK compounds 10 mg/kg or bupropion/naltrexone, vs vehicle control and CuSO4 control. How it is done: The method was based on the works by Takeda et al. and Yamamoto et al. with minor modification. The experiment lasted for five days. In addition to free access to feed, animals had also free access to a white kaolin. For the first few days, the animals were accustomed to the presence of kaolin in their cages. […] Moreover, animals were weighed before the compounds administration and 24 h after.

The mark [5] stands for this setting: antagonist dose-response with reference agonist (R)-alpha-methylhistamine at EC80, read-out: Lance cAMP IC50.
Setting [6] is: text summary over both methods (Lance cAMP and Aequoscreen), read-out: IC50 value.
Setting [7] is: palatable feed, KSK compounds 10 mg/kg b.w. or bupropion/naltrexone combination.
Where [8] appears, read: palatable feed, vs palatable feed + vehicle.

Molecules are shown by their SMILES. Entries after “also recorded” stand apart in the source; their conditions may differ.

T1 sequence (Q9Y5N1 whole entry): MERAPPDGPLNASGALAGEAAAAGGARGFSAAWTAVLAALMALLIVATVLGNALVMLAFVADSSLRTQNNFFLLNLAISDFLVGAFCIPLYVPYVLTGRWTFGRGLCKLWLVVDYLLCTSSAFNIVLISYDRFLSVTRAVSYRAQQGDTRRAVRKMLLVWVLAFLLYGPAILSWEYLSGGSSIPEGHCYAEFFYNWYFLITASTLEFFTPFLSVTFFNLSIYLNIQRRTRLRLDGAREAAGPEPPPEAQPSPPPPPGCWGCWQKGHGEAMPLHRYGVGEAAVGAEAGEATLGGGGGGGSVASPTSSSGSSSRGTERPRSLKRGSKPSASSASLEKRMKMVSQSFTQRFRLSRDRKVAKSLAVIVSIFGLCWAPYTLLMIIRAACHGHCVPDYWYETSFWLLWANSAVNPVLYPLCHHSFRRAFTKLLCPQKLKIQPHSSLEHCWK

`CC(=O)c1ccc(OCCCCCCCCN2CCN(c3ccncc3)CC2)cc1.O=C(O)C(=O)O` [KSK-73, 1-(4-((8-(4-(pyridin-4-yl)piperazin-1-yl)octyl)oxy)phenyl)ethan-1-one oxalate]: the IC50 (commonly the concentration that inhibits the measured activity by half) at H3 histamine receptor [1] (setting [5]) is 10.5 ± 1.5 nM; on H3 histamine receptor [1] (setting [6]), 10 to 20 nM; against H3 histamine receptor [2], 20.6 ± 4.5 nM. In addition, in data set [3] (end of experiment, vs palatable feed + vehicle), the “fat pads in the peritoneal cavity” value is “Significantly fewer fat pads”. For the same compound, the “body weight after the first administration” value in data set [3] (palatable feed, i.p. 10 mg/kg b.w., 10 mg/kg) is on record as “slowed down the rats’ body weight gain already after the first administration; also recorded: weight loss after the first administration”. Besides, the body weight gain entry is given as “caused significantly greater weight gain” in data set [3] (palatable feed, 1 mg/kg b.w.) and “gained less weight than the control group fed palatable diet” in data set [3] (setting [7]). Further, the “caloric intake over the 28 days” value in data set [3] (setting [8]) is “significantly reduced animals caloric intake”. Besides, in data set [4], the plasma triglyceride levels entry was “comparable to the ones observed in rats from the control group fed standard feed”. Besides, in the data set on female Wistar rats, the kaolin clay intake result is listed as “consumed significantly less kaolin clay”. For the same compound, the “water intake (pica model)” value in the data set with female Wistar rats (single i.p., 24 h) was “lower water intake”. Further, the “calorie intake (pica model)” value in the data set with female Wistar rats (single i.p., 24 h, vs vehicle control) is reported as “consumed fewer calories”. In the data set with female Wistar rats (single i.p., 24 h), the kaolin intake entry is “did not consume more kaolin”.
For `CC(=O)c1ccc(OCCCCCCN2CCN(c3ccncc3)CC2)cc1.O=C(O)C(=O)O` [KSK-59, 1-(4-((6-(4-(pyridin-4-yl)piperazin-1-yl)hexyl)oxy)phenyl)ethan-1-one oxalate], the IC50 is 3.79 ± 0.4 nM at H3 histamine receptor [1] (setting [5]), about 3 nM on H3 histamine receptor [1] (setting [6]) and 3.31 ± 3.2 nM against H3 histamine receptor [2]. The body weight gain result in data set [3] (palatable feed, 1 mg/kg b.w.) was “did not significantly affect weight gain”; in data set [3] (setting [7]), “gained less weight than the control group fed palatable diet”. Further, the “caloric intake over the 28 days” value in data set [3] (setting [8]) is on record as “comparable to the amount consumed by the control rats”. In data set [4], the plasma triglyceride levels result is recorded as “statistically significantly higher”. Besides, the plasma adiponectin level result in data set [4] (day 31, vs control rats fed palatable feed) is given as “Significantly lower level of adiponectin”. Besides, in the data set on female Wistar rats, the kaolin clay intake result is recorded as “consumed significantly less kaolin clay”. The “water intake (pica model)” value in the data set with female Wistar rats (single i.p., 24 h) was “lower water intake”. Besides, in the data set on female Wistar rats (single i.p., 24 h), the kaolin intake entry is reported as “did not consume more kaolin”.
